Patent US20230202997A1, “CHROMANOL, QUINONE OR HYDROQUINONE COMPOUNDS FOR TREATMENT OF SEPSIS” (Sulfateq B.V., priority 2020, published 2023)

What was measured:
TNFα mRNA expression [1] = experiment: Inhibition of LPS-induced TNFα mRNA expression in NRK52E; format: cell-based, Rat; details: 10 μM for 30 min, then LPS 24 hours
Method: (§1) Rat kidney epithelial cells (ATCC #CRL-1571) were maintained in DMEM medium containing 10% fetal bovine serum, and 1% Penicillin-Streptomycin solution (Sigma-Aldrich). NRK52E cells were passaged by trypsinization when the cultures reached a confluency of 70%. For all experiments, NRK52E cells were seeded at 0.6·10^5 cells/cm^2 and allowed to adhere for 24 hours.
(§2) HUVEC and NRK52E cells were pre-incubated with SUL compounds (10 μM) for 30 min and subsequently exposed to LPS for 24 hours under standard culture conditions. Cells were lysed in triZOL reagens (Invitrogen) and total RNA isolated according to manufacturers' instruction. 1 μg total RNA per sample was reverse transcribed using the FirstAid Reverse Transcription Kit (ThermoFisher). Copy-DNA equivalents of 5 ng total RNA were amplified on a ViiA7 Real-time PCR system (ThermoFisher, Waltham, Mass.) using iTaq Universal SYBR Green Supermix (Bio-Rad, Hercules, Calif.) and primers specific for tumor necrosis factor alpha, interleukin 1 beta, interleukin-6 and beta actin as loading control. Amplification was performed for 40 cycles of 95° C. for 30 s, 60° C. for 1 min. Relative mRNA expression was calculated as 2^−(Cq^gene^−Cq^reference^) and normalized to unstimulated control cells (100% inhibition) and vehicle-treated and LPS exposed cells (0% inhibition). The following primers were used: […]

IL-1β mRNA expression [2] = experiment: Inhibition of LPS-induced IL-1β mRNA expression in NRK52E; format: cell-based, Rat; details: 10 μM for 30 min, then LPS 24 hours
Method: as §1, §2

IL-6 mRNA expression [3] = experiment: Inhibition of LPS-induced IL-6 mRNA expression in NRK52E; format: cell-based, Rat; details: 10 μM for 30 min, then LPS 24 hours
Method: as §1, §2

TNFα mRNA expression [4] = experiment: Inhibition of LPS-induced TNFα mRNA expression in HUVEC; format: cell-based, Human; details: 10 μM for 30 min, then LPS 24 hours
Method: (§3) Human Umbilical Cord Endothelial Cells (HUVEC, Lonza CC-2519) were maintained on 1% gelatin-coated culture flasks in RPMI1640 medium containing 20% fetal bovine serum, 2 mM Glutamine (Sigma-Aldrich), 1% Penicillin-Streptomycin solution (Sigma-Aldrich) and 50 μg/ml Bovine Pituitary Extract (Invitrogen). HUVEC were passaged by trypsinization when the cultures reach a confluency of 70%. For all experiments, HUVEC were seeded at 0.6·10^5 cells/cm^2 and allowed to adhere for 24 hours.
as §2

IL-1β mRNA expression [5] = experiment: Inhibition of LPS-induced IL-1β mRNA expression in HUVEC; format: cell-based, Human; details: 10 μM for 30 min, then LPS 24 hours
Method: as §3, §2

IL-6 mRNA expression [6] = experiment: Inhibition of LPS-induced IL-6 mRNA expression in HUVEC; format: cell-based, Human; details: 10 μM for 30 min, then LPS 24 hours
Method: as §3, §2

NO production in HUVEC = experiment: Endothelial NO production (nitrate in conditioned medium), basal and after LPS; format: cell-based, Human
Method: as §3
Cellular production of NO was approximated by measuring nitrate concentrations in culture media using the Measure-IT™ High-Sensitivity Nitrite Assay Kit (#M36051, ThermoFisher) according to manufacturer's instructions. […] Therefore, nitrate concentrations in conditioned media are a good approximate to assess cellular NO production. 50 μl conditioned medium derived from a single 96-wells plate well was used per assay and normalized against protein concentration. All experiments were performed in quadruplicate.
Endotoxins suppress endothelial NO production by limiting the activity of eNOS. HUVEC were pre-treated with vehicle (DMSO), BN-80933, SUL-138, or SUL-150 or (all 10 μM) prior to endotoxin (LPS 100 ng/ml) exposure for 24 hours. The nitrate levels in the conditioned medium from endothelial cells exposed to LPS averaged at 160 pmol/mg protein (˜33% reduction versus non LPS exposed HUVEC, p=0.002), which was lower than basal control levels. BN-80933 further suppressed the nitrate levels in the conditioned medium (FIG. 7A) to an average of 90 pmol/mg protein (p=0.008).

[7] = tested on: NO production in RAW264.7 macrophages; experiment: Macrophage NO production (nitrate in conditioned medium), basal and after LPS; format: cell-based, Mouse
Method: Mouse macrophage RAW264.7 cells (ATCC #TIB-71) were maintained in DMEM medium containing 10% fetal bovine serum, and 1% Penicillin-Streptomycin solution (Sigma-Aldrich). […] For all experiments, RAW264.7 cells were seeded at 0.5·10^5 cells/cm^2 and allowed to adhere for 24 hours. Cellular production of NO was approximated by measuring nitrate concentrations in culture media using the Measure-IT™ High-Sensitivity Nitrite Assay Kit (#M36051, ThermoFisher) according to manufacturer's instructions. […] Therefore, nitrate concentrations in conditioned media are a good approximate to assess cellular NO production. 50 μl conditioned medium derived from a single 96-wells plate well was used per assay and normalized against protein concentration. All experiments were performed in quadruplicate. LPS induces macrophage NO production by activating iNOS. RAW264.7 macrophages were pre-treated with vehicle (DMSO), BN-80933, SUL-138, or SUL-150 or (all 10 μM) prior to endotoxin (LPS 100 ng/ml) exposure for 24 hours. The nitrate levels in the conditioned medium from LPS exposed RAW264.7 macrophages averaged at 83 pmol/mg protein (˜16-fold increase versus non-exposed RAW264.7 cells, p=0.001).

[8] = tested on: cytoplasmic oxidative stress in HUVEC; experiment: LPS-induced cellular superoxide in HUVEC (DHE); format: cell-based, Human; details: 10 μM for 30 min, LPS 100 ng/ml 24 hours
Method: as §3
(§4) The production of cellular and mitochondrial oxidative stress was measured using fluorescent probes for cellular and mitochondrial superoxide, i.e. dihydroethidium (DHE) and MitoSox (ThermoFisher), respectively. HUVEC were incubated with BN-80933, SUL-138 or SUL-150 (all 10 μM) for 30 min. Next, HUVEC were exposed to LPS (100 ng/ml) for an additional 24 hours. In the final hour of incubation, 2.5 μM of DHE or MitoSox was applied to each sample. HUVEC were washed in PBS and fixed in 4% paraformaldehyde at room temperature for 15 min. Nuclear staining was performed by 5 μM […] (DAPI) and fluorescence intensity of the samples was recorded in a CLARIOStar Plus plate reader (BMG Labtech) equipped with the appropriate filter sets. Fluorescence recordings for DHE and MitoSox were corrected for DAPI fluorescence. All experiments were performed in quadruplicate.

[9] = tested on: mitochondrial oxidative stress in HUVEC; experiment: LPS-induced mitochondrial superoxide in HUVEC (MitoSox); format: cell-based, Human; details: 10 μM for 30 min, LPS 100 ng/ml 24 hours
Method: as §3, §4

TNFα mRNA expression [10] = experiment: Endothelial inflammatory activation after endotoxin, TNFα mRNA (Example 5); format: cell-based, Human; details: HUVEC; 10 μM for 30 min
Method: as §3
(§5) HUVEC cells were lysed in triZOL reagens (Invitrogen) and total RNA isolated according to manufacturers' instruction. 1 μg total RNA per sample was reverse transcribed using the FirstAid Reverse Transcription Kit (ThermoFisher). Copy-DNA equivalents of 5 ng total RNA were amplified on a ViiA7 Real-time PCR system (ThermoFisher, Waltham, Mass.) using iTaq Universal SYBR Green Supermix (Bio-Rad, Hercules, Calif.) and primers specific for tumor necrosis factor alpha (TNFα; sense 5′-[…]-3′, antisense 5′-[…]-3′), interleukin 1 beta (IL-1β; sense 5′-[…]-3′, antisense 5′-[…]-3′), interleukin-6 (IL-6; sense 5′-[…]-3′, antisense 5′-[…]-3′) and beta actin (ACTB; sense 5′-[…]-3′, antisense 5′-[…]-3′) as loading control. Amplification was performed for 40 cycles of 95° C. for 30 s, 60° C. for 1 min. Relative mRNA expression was calculated according to the δδCt-method.

IL-1β mRNA expression [11] = experiment: Endothelial inflammatory activation after endotoxin, IL-1β mRNA (Example 5); format: cell-based, Human; details: HUVEC; 10 μM for 30 min
Method: as §3, §5

IL-6 mRNA expression [12] = experiment: Endothelial inflammatory activation after endotoxin, IL-6 mRNA (Example 5); format: cell-based, Human; details: HUVEC; 10 μM for 30 min
Method: as §3, §5

HUVEC = experiment: Cell viability after hypothermia-rewarming stress (Neutral Red); format: cell-based, Human; details: 10 μM for 1 hour, 4° C. for 24 hours followed by 37° C. for 3 hours
Method: as §3
HUVEC were pre-treated with BN-80933, SUL-138 or SUL-150 (all 10 μM) for 1 hour in a humidified incubator at 37° C. Following pre-treatment, HUVEC were placed in a cold room (2-8° C.) for 24 hours and subsequently placed back at 37° C. for a 3 hour rewarming period. After 1 hour of rewarming, cell culture medium was replaced by prewarmed and filtered 0.4 mg/mL Neutral Red (#N463 8, Sigma-Aldrich) in culture medium. After the remaining 2 hour rewarming period, HUVEC were washed with PBS and NRU was solubilized in 100 μL resorption solution (50% ethanol, 1% ascetic acid in dH2O). The absorbance was measured at a wavelength of 550 nm on a BioTek ELx808 plate reader. The recorded OD550 nm values were normalized to control samples that were maintained at 37° C. at all times, which were assumed to be 100% viable.

[13] = 10 μM pre-treatment, LPS 100 ng/ml for 24 hours

| SMILES | inhibition of LPS-induced mRNA expression of TNFα (TNFα mRNA expression [1]) [%] | inhibition of LPS-induced mRNA expression of IL-1β (IL-1β mRNA expression [2]) [%] | inhibition of LPS-induced mRNA expression of IL-6 (IL-6 mRNA expression [3]) [%] | inhibition of LPS-induced mRNA expression of TNFα (TNFα mRNA expression [4]) [%] | inhibition of LPS-induced mRNA expression of IL-1β (IL-1β mRNA expression [5]) [%] | inhibition of LPS-induced mRNA expression of IL-6 (IL-6 mRNA expression [6]) [%] | also measured |
| --- | --- | --- | --- | --- | --- | --- | --- |
| Cc1c(C)c2c(c(C)c1O)CCC(C)(C(=O)Nc1ccccc1)O2 (stereo not shown) [SUL-103, 6-hydroxy-2,5,7,8-tetramethyl-N-phenyl-3,4-dihydro-2H-1-benzopyran-2-carboxamide] | 67.8 ± 7.8 | 59.2 ± 7.9 | 63.3 ± 1.4 |  |  |  |  |
| Cc1c(C)c2c(c(C)c1O)CCC(C)(C(=O)N[C@H](CO)c1ccccc1)O2 (stereo partly drawn) [SUL-129, 6-hydroxy-N-[(1S)-2-hydroxy-1-phenylethyl]-2,5,7,8-tetramethyl-3,4-dihydro-2H-1-benzopyran-2-carboxamide] | 75.6 ± 6.4 | 75.9 ± 7.1 | 69.2 ± 2.6 |  |  |  |  |
| Cc1c(C)c2c(c(C)c1O)CC[C@@](C)(C(=O)N[C@@H]1CCCNC1)O2 [SUL-13, (2S)-6-hydroxy-2,5,7,8-tetramethyl-N-((R)-piperidin-3-yl)-3,4-dihydro-1-benzopyran-2-carboxamide] |  |  |  | 41.2 ± 8.2 | 38.6 ± 4.2 | 45.7 ± 9.1 |  |
| Cc1c(C)c2c(c(C)c1O)CCC(C)(C(N)=O)O2 (stereo not shown) [SUL-89, 6-hydroxy-2,5,7,8-tetramethyl-3,4-dihydro-2H-1-benzopyran-2-carboxamide, reference compound] | 17.5 ± 3.4 | 12.3 ± 6.4 | 8.7 ± 4.6 |  |  |  |  |
| COC(=O)CNC(=O)C1(C)CCc2c(C)c(O)c(C)c(C)c2O1 (stereo not shown) [SUL-99, methyl [(6-hydroxy-2,5,7,8-tetramethyl-3,4-dihydro-2H-1-benzopyran-2-carbonyl)amino]acetate, reference compound] |  |  |  | 35.1 ± 6.2 | 31.5 ± 4.5 | 32.7 ± 8.1 |  |
| Cc1c(C)c2c(c(C)c1O)CC[C@@](C)(C(=O)N1CCN(c3ccc(NC(=N)c4cccs4)cc3)CC1)O2 [BN-80933, reference compound] |  |  |  |  |  |  | nitrate levels in the conditioned medium after LPS (NO production in HUVEC; [13]): 90 pmol/mg protein; suppression of basal endothelial NO production (nitrate in conditioned medium) (NO production in HUVEC; no LPS, 10 μM): ~38%; LPS-induced increase in extracellular nitrate level [7, 13]: blunted the LPS-induced increase in extracellular nitrate level; basal production of extracellular nitrate ([7]; no LPS, 10 μM): Neither BN-80933, SUL-138, nor SUL-150 affected the basal production of extracellular nitrate; LPS-induced cytoplasmic oxidative stress (DHE) [8]: mitigates the induction of cytoplasmic oxidative stress; LPS-induced mitochondrial oxidative stress (MitoSox) [9]: not affected by the pre-treatment with BN-80933; LPS-induced mRNA expression of TNFα (TNFα mRNA expression [10]): precludes the induction of mRNA expression of the pro-inflammatory cytokine TNFα; LPS-induced mRNA expression of IL-1β (IL-1β mRNA expression [11]): does not preclude the LPS-induced mRNA expression of the interleukins IL-1β and IL-6; LPS-induced mRNA expression of IL-6 (IL-6 mRNA expression [12]): does not preclude the LPS-induced mRNA expression of the interleukins IL-1β and IL-6; reduction in cell viability versus normothermic control cells (HUVEC): ~55% |
| Cc1c(C)c2c(c(C)c1O)CCC(C)(C(=O)NCc1ccccc1)O2 (stereo not shown) [SUL-96, N-benzyl-6-hydroxy-2,5,7,8-tetramethyl-3,4-dihydro-2H-1-benzopyran-2-carboxamide] | 85.4 ± 4.7 | 81.7 ± 7.2 | 89.9 ± 5.8 |  |  |  |  |
| Cc1c(C)c(O)c(CC[C@@](C)(O)C(=O)N2CCN(CCO)CC2)c(C)c1O [SUL-138M2, 4-(2,5-dihydroxy-3,4,6-trimethylphenyl)-2-hydroxy-1-(4-(2-hydroxyethyl)piperazin-1-yl)-2-methylbutan-1-one] |  |  |  | 58.1 ± 3.1 | 51.7 ± 8.0 | 55.2 ± 8.5 |  |
